Two compounds from patent publication US10183063B2, “Injection composition comprising hyaluronidase for removal of topical fat” (priority 2016, dated 2019) can be followed below.

One experiment has as its system topical fat. The class given is in vivo, human. An excerpt:
In order to find the optimal doses of hyaluronidase facilitating lipolysis, the present inventor conducted experiments with hyaluronidase unit doses of 10 IU, 50 IU, 100 IU, 150 IU, 200 IU, 250 IU, 300 IU, 350 IU, 400 IU, 450 IU, 500 IU, 550 IU, 600 IU, 650 IU, 700 IU, 750 IU, 800 IU, 850 IU, 900 IU, 950 IU, 1000 IU, 1050 IU, 1100 IU, 1150 IU, 1200 IU, 1250 IU, 1300 IU, 1350 IU, 1400 IU, 1450 IU, and 1500 IU.
It was shown in clinical trials that at the above dose range, if the injection composition is administered in a volume of 1 cc containing 300 IU of hyaluronidase, the diameter of the diffusion range is about 1 cm. Thus, with the hyaluronidase dose set at 300 IU to 600 IU, by injecting the composition at a volume of 0.5 to 2 cc depending on the hyaluronidase dose and at injection points with an interval of 0.5 to 1.5 cm between the injection points, injection at narrow intervals is possible and consequently, lipolysis occurs evenly. Furthermore, a lifting effect occurs concomitantly where skin resilience is improved by the promotion of collagen production through stimulation of the skin by the injection needle.
Thus, by administering an injection composition of the present invention having the above compositional ranges, the side effects from using the drugs are minimized and fat removal over a wide area can be carried out using a minimal volume.
It was shown in clinical trials that at a hyaluronidase of 300 IU, the diameter of the diffusion range for the injection composition is about 1 cm. Thus, by injecting the composition at narrow intervals between injection points of 0.5 to 2 cm, even fat removal as well as collagen production by skin stimulation can be facilitated.

For `CCN(CC)CCOC(=O)c1ccc(N)cc1` [procaine], the “time until the onset of action for the local anesthetic effect, later compared to lidocaine” value was “more than 10 minutes”.

For hyaluronidase, in the experiment with topical fat (unit dose 300 IU or below), the Lipolysis entry is “sufficient lipolysis did not occur”. Moreover, the Fat removal entry with topical fat (unit dose above 600 IU) is reported as “excellent effects were obtained in terms of fat removal”. Also, the “Fat removal effect and side effects” value in the experiment on topical fat (unit dose of 300 IU to 600 IU) is “possible to ensure the fat removal effect while minimizing side effects”. Besides, the “minimum amount of hyaluronidase exhibiting efficacy” value in the experiment on topical fat (unit dose per injection) worked out at 300 IU.
